For this assay, the target named is recombinant human PARP (Homo sapiens, UniProt P09874). Description: PARP Inhibitory Activity (In vitro assay). It counts as biochemical. To be noted: 32P-NAD, activated DNA, 15 minutes at room temperature, pH8.0. The procedure:
The recombinant human PARP (5.3 mg protein/ml) were incubated with a test compound in a 100 μl reaction buffer containing the indicated concentration of 1 mCi/ml ^32P-NAD, 50 mM Tris-HCl, 25 mM MgCl2, 1 mM DTT (dithiothreitol), 0.05 mM NAD (nicotinamido adenine dinucleotide), lmg/mi activated DNA, pH8.0. Incubation was for 15 minutes at a room temperature and the reaction was stopped by the addition of 200 μl of ice-cold 20% trichloroacetic acid followed by rapid filtration through GF/B filters. The filters were treated with scintillation fluid and acid-insoluble counts were measured for quantification of unit activity.
PARP Inhibitory Activity (%)=
[1-(enzyme activity with test compound)/(enzyme activity with vehicle)]×100

Chain of recombinant human PARP (P09874 whole entry): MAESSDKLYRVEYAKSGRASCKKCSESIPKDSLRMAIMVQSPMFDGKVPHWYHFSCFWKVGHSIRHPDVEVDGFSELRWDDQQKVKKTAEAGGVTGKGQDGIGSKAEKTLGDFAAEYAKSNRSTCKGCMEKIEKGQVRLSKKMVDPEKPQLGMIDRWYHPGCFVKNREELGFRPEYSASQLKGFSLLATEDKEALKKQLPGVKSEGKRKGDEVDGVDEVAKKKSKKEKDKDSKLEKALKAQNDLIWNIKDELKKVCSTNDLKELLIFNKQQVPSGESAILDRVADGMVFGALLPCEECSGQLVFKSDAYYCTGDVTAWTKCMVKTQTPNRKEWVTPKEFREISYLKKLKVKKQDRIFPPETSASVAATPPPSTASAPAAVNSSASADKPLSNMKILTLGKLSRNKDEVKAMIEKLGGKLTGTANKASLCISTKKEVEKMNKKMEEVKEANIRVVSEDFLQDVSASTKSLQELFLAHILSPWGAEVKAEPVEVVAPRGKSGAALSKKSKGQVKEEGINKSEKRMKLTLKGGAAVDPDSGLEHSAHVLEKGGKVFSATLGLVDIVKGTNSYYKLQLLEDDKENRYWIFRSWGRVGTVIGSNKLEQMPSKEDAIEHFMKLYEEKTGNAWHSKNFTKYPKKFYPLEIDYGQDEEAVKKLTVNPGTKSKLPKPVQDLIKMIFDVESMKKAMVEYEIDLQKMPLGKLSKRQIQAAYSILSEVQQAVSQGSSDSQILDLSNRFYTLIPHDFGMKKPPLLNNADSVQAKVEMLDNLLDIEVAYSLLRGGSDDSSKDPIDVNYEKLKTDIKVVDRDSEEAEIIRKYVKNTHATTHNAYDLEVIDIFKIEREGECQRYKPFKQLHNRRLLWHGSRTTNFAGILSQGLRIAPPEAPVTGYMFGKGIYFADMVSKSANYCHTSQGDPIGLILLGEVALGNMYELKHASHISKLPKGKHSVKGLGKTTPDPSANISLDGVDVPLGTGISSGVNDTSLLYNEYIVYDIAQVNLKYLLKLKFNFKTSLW

Usually IC50 stands for the concentration needed to halve the response being measured. In the case of `O=c1[nH]c(CCCN2CC=C(c3ccccc3)CC2)nc2c1CCCC2` [Compound A, 2-[3-(4-Phenyl-3,6-dihydro-1(2H)-pyridyl)propyl]-5,6,7,8-tetrahydro-4(3H)-quinazolinone], the concentration for half-maximal inhibition (IC50) is less than 500 nM. For the molecule `O=c1[nH]c(CCCN2CC=C(c3ccccc3)CC2)nc2c1CSCC2` [Compound B, 2-[3-(4-Phenyl-3,6-dihydro-1(2H)-pyridyl)propyl]-3,5,7,8-tetrahydro4H-thiopyrano[4,3-d]pyrimidin-4-one], the IC50 is less than 500 nM.

Turning to `O=c1[nH]nc(CCCCN2CC=C(c3ccccc3)CC2)c2ccccc12` [Compound C, 4-[4-(4-Phenyl-3,6dihydro-1(2H)-pyridyl)butyl]-1(2H)-phthalazinone], the IC50 was less than 500 nM. With `Cn1c2c(c3ccccc31)CCN(CCCCc1n[nH]c(=O)c3ccccc13)C2` [Compound D] the figure was less than 500 nM.
